From patent US7045315B2, “Methods for modulating expression of exogenous genes in mammalian systems” (The Salk Institute for Biological Studies, priority 1998, dated 2006)

Tests used:
Format in all cases: cell-based
[1] = test system: VgEcR/RXR heterodimer; experiment: Assay for inducer effectiveness on the ecdysone-inducible expression system (E/GRE4-ΔMTV-Luc reporter, CV-1 cells); settings: for ability to activate the expression system in the further presence of an RXR agonist: diacylhydrazine plus LG1000268 vs alone, FIG. 4
Method: CV-1 cells were maintained in DMEM supplemented with 10% fetal bovine serum. Transfections were performed using the Dotap transfection reagent (Boehringer Mannheim). All candidate inducers were dissolved in either ethanol or DMSO. Muristerone A (MurA) was used as a positive control for activation. All transfections were performed in triplicate.
The E/GRE4-ΔMTV-Luc plasmid is routinely used as a reporter. […] A CMX-β-gal reporter plasmid was included in the transfection as a control for transfection efficiency. Approximately 10 hours after transfection, the media was removed and replaced with fresh media containing varying concentrations of the putative inducers. Cells were exposed to candidate activators for 20–48 hours, then assayed for luciferase and β-galactosidase activity employing standard techniques. Luciferase values were normalized using β-galactosidase activity levels.

[2] = target: T1, ecdysone receptor (EcR) with USP (Drosophila melanogaster, UniProt P34021); experiment: Transient transfection reporter assay in CV-1 cells, ecdysone receptor with USP; settings: 1 μM muristerone A vs ethanol, unmodified ecdysone receptor, FIG. 1A
T1 construct: expressed in transfected cells; host or cells: CV-1 cells
T1 sequence (P34021 1-878): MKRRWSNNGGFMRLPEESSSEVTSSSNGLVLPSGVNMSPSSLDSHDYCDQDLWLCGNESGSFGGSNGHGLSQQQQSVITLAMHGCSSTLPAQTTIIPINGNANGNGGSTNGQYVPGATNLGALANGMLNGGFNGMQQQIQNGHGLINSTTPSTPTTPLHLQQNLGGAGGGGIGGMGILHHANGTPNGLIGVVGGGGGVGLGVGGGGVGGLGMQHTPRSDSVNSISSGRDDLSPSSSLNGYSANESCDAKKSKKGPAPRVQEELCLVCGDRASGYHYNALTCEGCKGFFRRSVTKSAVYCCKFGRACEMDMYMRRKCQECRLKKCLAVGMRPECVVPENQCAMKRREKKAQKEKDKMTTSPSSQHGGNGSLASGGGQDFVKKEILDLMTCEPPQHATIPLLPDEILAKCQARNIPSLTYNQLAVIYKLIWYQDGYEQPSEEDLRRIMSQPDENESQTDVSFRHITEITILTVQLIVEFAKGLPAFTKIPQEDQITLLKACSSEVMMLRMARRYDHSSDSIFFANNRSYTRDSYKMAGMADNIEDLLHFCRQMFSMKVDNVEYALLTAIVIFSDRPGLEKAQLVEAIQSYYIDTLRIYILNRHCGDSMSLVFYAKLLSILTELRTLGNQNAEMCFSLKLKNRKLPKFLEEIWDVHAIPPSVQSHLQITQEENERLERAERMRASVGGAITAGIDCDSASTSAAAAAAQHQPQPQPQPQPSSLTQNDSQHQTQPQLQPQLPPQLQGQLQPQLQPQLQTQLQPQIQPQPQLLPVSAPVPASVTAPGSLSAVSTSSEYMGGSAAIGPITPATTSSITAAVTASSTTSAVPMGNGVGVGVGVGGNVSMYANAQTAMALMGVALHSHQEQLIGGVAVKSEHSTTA
T1 sequence (P20153 1-508 partner): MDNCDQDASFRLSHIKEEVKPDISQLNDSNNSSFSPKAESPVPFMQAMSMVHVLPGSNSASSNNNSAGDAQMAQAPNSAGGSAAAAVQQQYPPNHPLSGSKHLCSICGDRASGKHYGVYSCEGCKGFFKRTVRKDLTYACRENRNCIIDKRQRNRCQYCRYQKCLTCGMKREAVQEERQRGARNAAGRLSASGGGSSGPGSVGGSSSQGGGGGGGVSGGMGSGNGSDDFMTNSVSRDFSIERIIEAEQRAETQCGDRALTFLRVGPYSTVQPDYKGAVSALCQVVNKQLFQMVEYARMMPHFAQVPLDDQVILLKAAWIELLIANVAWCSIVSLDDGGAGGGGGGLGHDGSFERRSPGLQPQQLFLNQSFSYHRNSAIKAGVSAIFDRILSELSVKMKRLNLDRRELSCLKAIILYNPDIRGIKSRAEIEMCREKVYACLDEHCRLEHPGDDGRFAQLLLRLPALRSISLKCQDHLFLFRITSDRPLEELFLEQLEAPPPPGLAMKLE
Method: (§1) CV-1 cells were maintained in DMEM supplemented with 10% Fetal Bovine Serum. Transient transfections were performed using DOTAP transfection reagent (Boehringer-Mannheim). Transfections using β-galactosidase as the reporter were assayed either by Galactolight luminescent assay (Tropix, Bedford, Mass.) or by standard liquid ONPG assay (Sigma, St. Louis, Mo). The values were normalized by co-transfection of CMX-luciferase. Transfections using luciferase as the reporter were assayed by standard techniques using luciferin and ATP. These values were normalized by co-transfection of CMX-β-galactosidase. Hormone treated cells were treated with ethanol, 50 μM Juvenile Hormone III (Sigma), 1 μM muristerone A (Zambon, Bresso, IT), or 1 μM dexamethasone (Sigma) unless otherwise noted.
(§2) To maximize the sensitivity of the invention ecdysone inducible system, modifications of the ecdysone receptor were made. The N-terminal transactivation domain of the ecdysone receptor was replaced by the corresponding domain of the glucocorticoid receptor (GR), resulting in the modified ecdysone receptor GEcR (See FIG. 1D). CV-1 cells were transfected with the plasmid CMX-GEcR encoding the modified ecdysone receptor as discussed above. […]

[3] = test system: GEcR (modified ecdysone receptor); experiment: Transient transfection reporter assay in CV-1 cells, modified ecdysone receptor GEcR; settings: 1 μM muristerone A vs ethanol; CV-1 cells transfected with CMX-GEcR; FIG. 1A
Method: as §1, §2

[4] = test system: RXR and VpEcR heterodimer; experiment: Transient transfection reporter assay in CV-1 cells, RXR and VpEcR; settings: 1 μM muristerone A, FIG. 1A
Method: as §1

[5] = target: T2, ecdysone receptor heterodimer with retinoid X receptor (RXR) (Drosophila melanogaster, UniProt P34021); experiment: Transient transfection reporter assay in CV-1 cells, USP replaced by RXR; settings: 1 μM muristerone A, FIG. 1A
T2 construct: expressed in transfected cells; host or cells: CV-1 cells
T2 sequence (P34021 1-878): T1 sequence (P34021 1-878)
T2 sequence (P19793 1-462 partner): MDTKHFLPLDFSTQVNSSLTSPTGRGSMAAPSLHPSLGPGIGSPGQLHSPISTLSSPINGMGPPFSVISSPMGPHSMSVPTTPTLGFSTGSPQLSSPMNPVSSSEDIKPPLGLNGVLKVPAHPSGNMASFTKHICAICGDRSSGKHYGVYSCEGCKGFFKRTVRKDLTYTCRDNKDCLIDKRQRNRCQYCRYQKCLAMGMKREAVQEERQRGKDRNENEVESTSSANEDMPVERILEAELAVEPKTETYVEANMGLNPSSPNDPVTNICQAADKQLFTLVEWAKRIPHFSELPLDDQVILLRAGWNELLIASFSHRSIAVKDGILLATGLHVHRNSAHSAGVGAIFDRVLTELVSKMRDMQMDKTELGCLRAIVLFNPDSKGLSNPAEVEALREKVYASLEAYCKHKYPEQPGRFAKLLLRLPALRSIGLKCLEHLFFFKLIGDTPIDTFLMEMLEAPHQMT
Method: as §1, §2

Row | SMILES | ability to activate the expression system in the further presence of an RXR agonist [1] | muristerone responsiveness (fold induction of reporter) [2] | muristerone responsiveness (fold induction of reporter) [3] | fold induction of reporter [4] | fold induction of reporter [5] | activation of the ecdysone-inducible system, combination with RXR ligand ([1]; MurA concentration varied, LG1000268 constant 100 nM, FIG. 3) | activation of the ecdysone-inducible system, ligand alone ([1]; ligand alone over several concentrations, luciferase normalized to β-galactosidase, FIG. 3)
1 | Cc1cc(C)cc(C(=O)N(NC(=O)c2ccc3c(c2C)OCCO3)C(C)(C)C)c1 [N′-(3,5-dimethylbenzoyl)-N-(2-methyl-3,4-(ethylenedioxy)-benzoyl)-N′-(tert-butyl) hydrazine] | enhanced ability | – | – | – | – | – | –
2 | CCc1ccc(C(=O)NN(C(=O)c2cc(C)cc(C)c2)C(C)(C)C)cc1 [N′-(3,5-dimethylbenzoyl)-N-(4-ethylbenzoyl)-N′-(tert-butyl) hydrazine] | enhanced ability | – | – | – | – | – | –
3 | CC(C)CC[C@@H](O)[C@](C)(O)[C@H]1CC[C@@]2(O)C3=CC(=O)[C@]4(O)C[C@@H](O)[C@@H](O)C[C@]4(C)[C@H]3[C@H](O)C[C@]12C [muristerone A] | – | 3 fold | 11 fold | 212 fold | 34 fold | dramatically enhances the activation | effective inducer
